What was measured:
[1] = Behaviour of PP-G-PGn lipids in water (additional properties); type: physicochemical; details: for behaviour when heated in water: heated above 40° C. in water; for stability of the lamellar phases: low temperatures; for time until transition from the isotropic to the anisotropic phase is recognizable: room temperature; for behaviour when the temperature falls: temperature below 40° C.
Text: As the number of glycerol molecules increases, the number of free hydroxyl groups and thus also the polarity increases. […] Whereas the transition from the isotropic to the anisotropic phase at room temperature is recognizable after a few minutes with PP-G-PG2, it takes several hours for PP-G-PG3. The differences in polarity are also evident from the different retention factors (Rf) in the thin-layer chromatogram on silica gel.

[2] = in vivo
Description: In an animal experiment, liposomes were used which consisted of 40 mol % cholesterol, 10 mol % phosphatidylglycerol and 50% dipalmitoyl lecithin.
Liposomes of the same composition were prepared, in which the phosphatidylglycerol was replaced by a phosphatidylglycerol G2 of the invention. […] This linear relation was observed irrespective of the size of the liposomes. The same linear reduction in serum liposome concentration was found with 50 nm liposomes and with 150 nm liposomes. The linear reduction in blood liposome concentration was also observed for different starting concentrations.

Row | time until transition from the isotropic to the anisotropic phase is recognizable [1] | solution formed in water ([1]; proportion of 5% in water) | half-life in serum [2] | Substance | behaviour when heated in water [1] | stability of the lamellar phases [1] | behaviour when the temperature falls [1] | persistence characteristic (decrease of liposomes in serum with time) [2]
1 | a few minutes | – | – | 1.2-dipalmitoyl-sn-glycero-3-phospho-G1-G2 [PP-G-PG2] | dissolve when heated above 40 °C in water and form superstructures | remain stable even at low temperatures (down to 4° C.) | lamellar structures with differently pronounced hystereses are formed | –
2 | several hours | – | – | 1.2-dipalmitoyl-sn-glycero-3-phospho-G1-G2-G3 [PP-G-PG3] | dissolve when heated above 40 °C in water and form superstructures | remain stable even at low temperatures (down to 4° C.) | lamellar structures with differently pronounced hystereses are formed | –
3 | – | clear isotropic solution | – | 1.2-dipalmitoyl-sn-glycero-3-phospho-G1-G2-G3-G4 [PP-G-PG4] | – | – | – | –
4 | – | – | 4 h | phosphatidylglycerol | – | – | – | a rapid decrease to start with, followed by a slower decrease

Source: patent publication US8076520B2, “Phosphatidyl oligoglycerols” (Max-Planck-Gesellschaft zur Forderung der Wissenschaften …, priority 1996, dated 2011)
